According to patent US20100324312A1, “NOVEL METHYLATED CATECHIN AND COMPOSITION CONTAINING THE SAME” (INCORPORATED ADMINSTRATIVE AGENCY NATIONAL AGRICULTURE AND …, priority 2007, published 2010):

Columns and labels:
[1] = compared with EGCG; cited from earlier work
[2] = tested on: BMMC (mouse bone marrow-derived mast cells); experiment: Histamine release inhibitory activity in mouse mast cells (IgE-sensitized BMMC, DNP-HSA induced degranulation); format: cell-based; conditions: 12.5 and 25 μg/mL test sample, 10 min incubation, DNP-HSA antigen 20 min; histamine in supernatant relative to control (distilled water); FIG. 2; compared with epigallocatechin-3-O-gallate and epigallocatechin-3-O-(3-O-methyl)gallate
Protocol: FIG. 2 is a graph showing the histamine release inhibitory activity in mouse mast cells. In FIG. 2, numeral 1 denotes 12.5 μg/mL of epigallocatechin-3-O-gallate; numeral 2 denotes 25 μg/mL of epigallocatechin-3-O-gallate; numeral 3 denotes 12.5 μg/mL of epigallocatechin-3-O-(3-O-methyl)gallate: numeral 4 denotes 25 μg/mL of epigallocatechin-3-O-(3-O-methyl)gallate; numeral 5 denotes 12.5 μg/mL of epi(3-O-methyl)gallocatechin-3-O-(3,5-O-dimethyl)gallate; and numeral 6 denotes 25 μg/mL of epi(3-O-methyl)gallocatechin-3-O-(3,5-O-dimethyl)gallate.
The effect of epi(3-O-methyl)gallocatechin-3-O-(3,5-O-dimethyl)gallate was determined based on the histamine release inhibitory activity in mouse mast cells. Epigallocatechin-3-O-gallate and epigallocatechin-3-O-(3-O-methyl)gallate known to have stronger antiallergic activity than epigallocatechin-3-O-gallate were used as comparison substances. […] Then, DNP-HSA (antigen) was added thereto to induce degranulation (20 minutes), and the amount of histamine in the supernatant was measured by liquid chromatography. The antiallergic activity was evaluated based on the relative value with respect to the value for the control (distilled water). […]

| Molecule | antiallergic activity [1] | histamine release inhibitory activity [2] |
| --- | --- | --- |
| epigallocatechin-3-O-(3-O-methyl)gallate | stronger antiallergic activity than EGCG | – |
| COc1cc([C@H]2Oc3cc(O)cc(O)c3C[C@H]2OC(=O)c2cc(OC)c(O)c(OC)c2)cc(O)c1O [epi(3-O-methyl)gallocatechin-3-O-(3,5-O-dimethyl)gallate] | – | stronger than those of the comparison substances |
| COc1c(O)cc(C(=O)O[C@@H]2Cc3c(O)cc(O)cc3O[C@@H]2c2cc(O)c(O)c(O)c2)cc1O [epigallocatechin-3-O-(4-O-methyl)gallate] | stronger antiallergic activity than EGCG | – |
